From ChEMBL document CHEMBL5344406, “1,2,3-Triazole-containing hybrids with potential antibacterial activity against ESKAPE pathogens” (2022)
Values after ≈ are worked out from the molar mass of the structure shown. Each block holds one compound with its values, some of them ahead of it.

How the values were obtained:
Type in all cases: functional
Staphylococcus aureus [1] = assay: Antibacterial activity against Staphylococcus aureus assessed as bacterial growth inhibition by CLSI based broth microdilution method
Escherichia coli [2] = assay: Antibacterial activity against Escherichia coli assessed as bacterial growth inhibition by CLSI based broth microdilution method
Pseudomonas aeruginosa [3] = assay: Antibacterial activity against Pseudomonas aeruginosa assessed as bacterial growth inhibition by CLSI based broth microdilution method
Bacillus subtilis = assay: Antibacterial activity against Bacillus subtilis assessed as bacterial growth inhibition by broth microdilution method
Pseudomonas aeruginosa [4] = assay: Antibacterial activity against Pseudomonas aeruginosa assessed as bacterial growth inhibition by broth microdilution method
Staphylococcus aureus [5] = assay: Antibacterial activity against Staphylococcus aureus ATCC 43300 assessed as bacterial growth inhibition incubated for 24 hrs by CLSI based broth dilution method
Staphylococcus aureus [6] = assay: Antibacterial activity against Staphylococcus aureus ATCC 29213 assessed as bacterial growth inhibition incubated for 24 hrs by CLSI based broth dilution method
Staphylococcus aureus [7] = assay: Antibacterial activity against Staphylococcus aureus clinical isolate 144 assessed as bacterial growth inhibition incubated for 24 hrs by CLSI based broth dilution method
Staphylococcus aureus [8] = assay: Antibacterial activity against Staphylococcus aureus clinical isolate AD3 assessed as bacterial growth inhibition incubated for 24 hrs by CLSI based broth dilution method
Streptococcus pyogenes = assay: Antibacterial activity against erythromycin-resistant Streptococcus pyogenes clinical isolate 2 assessed as bacterial growth inhibition incubated for 24 hrs by CLSI based broth microdilution method
Streptococcus pneumoniae [9] = assay: Antibacterial activity against erythromycin-resistant Streptococcus pneumoniae AB11 expressing ermB/mefA assessed as bacterial growth inhibition incubated for 24 hrs by CLSI based broth microdilution method
Streptococcus pneumoniae [10] = assay: Antibacterial activity against erythromycin-resistant Streptococcus pneumoniae B1 expressing ermB assessed as bacterial growth inhibition incubated for 24 hrs by CLSI based broth microdilution method
Staphylococcus aureus [11] = assay: Antibacterial activity against methicillin-resistant Staphylococcus aureus ATCC 43300 assessed as bacterial growth inhibition incubated for 24 hrs by CLSI based broth microdilution method
Staphylococcus aureus [12] = assay: Antibacterial activity against penicillin-resistant Staphylococcus aureus ATCC 31007 assessed as bacterial growth inhibition incubated for 24 hrs by CLSI based broth microdilution method
Staphylococcus aureus [13] = assay: Antibacterial activity against Staphylococcus aureus ATCC 25923 assessed as bacterial growth inhibition by broth microdilution method
Escherichia coli [14] = assay: Antibacterial activity against Escherichia coli ATCC 25922 assessed as bacterial growth inhibition by broth microdilution method
Staphylococcus aureus [15] = assay: Antibacterial activity against Staphylococcus aureus assessed as bacterial growth inhibition by broth microdilution method
Escherichia coli [16] = assay: Antibacterial activity against Escherichia coli assessed as bacterial growth inhibition by broth microdilution method
Escherichia coli [17] = assay: Antibacterial activity against Escherichia coli assessed as bacterial growth inhibition
Staphylococcus aureus [18] = assay: Antibacterial activity against Staphylococcus aureus assessed as bacterial growth inhibition
Staphylococcus aureus [19] = assay: Antibacterial activity against Staphylococcus aureus 209p ATCC 6538P assessed as bacterial growth inhibition incubated for 1 to 2 days by serial dilution method; conditions: time 1-2 day
Staphylococcus aureus [20] = assay: Antibacterial activity against Staphylococcus aureus ATCC 43300 assessed as bacterial growth inhibition incubated for 24 hrs by broth microdilution method
Staphylococcus aureus [21] = assay: Antibacterial activity against Staphylococcus aureus ATCC 29213 assessed as bacterial growth inhibition incubated for 24 hrs by broth microdilution method
Staphylococcus aureus [22] = assay: Antibacterial activity against Staphylococcus aureus clinical isolate AD3 assessed as bacterial growth inhibition incubated for 24 hrs by broth microdilution method
Staphylococcus aureus [23] = assay: Antibacterial activity against Staphylococcus aureus clinical isolate 144 assessed as bacterial growth inhibition incubated for 24 hrs by broth microdilution method
Staphylococcus aureus [24] = assay: Antibacterial activity against erythromycin-susceptible Staphylococcus aureus ATCC 25923 assessed as bacterial growth inhibition by standard dilution assay
Staphylococcus aureus [25] = assay: Antibacterial activity against methicillin-resistant Staphylococcus aureus ATCC 43300 assessed as bacterial growth inhibition by standard dilution assay
Staphylococcus aureus [26] = assay: Antibacterial activity against erythromycin-resistant Staphylococcus aureus clinical isolate assessed as bacterial growth inhibition by standard dilution assay
Staphylococcus aureus [27] = assay: Antibacterial activity against penicillin-resistant Staphylococcus aureus ATCC 31007 assessed as bacterial growth inhibition by standard dilution assay
Klebsiella pneumoniae = assay: Antibacterial activity against erythromycin-resistant Klebsiella pneumoniae ATCC 700603 assessed as bacterial growth inhibition by standard dilution assay
Staphylococcus aureus [28] = assay: Potency index, ratio of Azithromycin MIC to test compound MIC for antibacterial activity against erythromycin-susceptible Staphylococcus aureus ATCC 25923 assessed as bacterial growth inhibition by standard dilution assay
Staphylococcus aureus [29] = assay: Potency index, ratio of Clarithromycin MIC to test compound MIC for antibacterial activity against erythromycin-susceptible Staphylococcus aureus ATCC 25923 assessed as bacterial growth inhibition by standard dilution assay

MIC (Staphylococcus aureus [1]): 4 µg/mL (≈ 7.35 µM)
MIC (Escherichia coli [2]): 4 µg/mL (≈ 7.35 µM)
MIC (Pseudomonas aeruginosa [3]): 4 µg/mL (≈ 7.35 µM)
SMILES: O=C(N/N=C/c1cn(-c2ccccc2)nc1-c1ccc(Cl)cc1)c1cccc(-n2cc(-c3ccccc3)nn2)c1

MIC (Bacillus subtilis): 1.25 µg/mL (≈ 3.62 µM)
MIC (Pseudomonas aeruginosa [4]): 1.25 µg/mL (≈ 3.62 µM)
SMILES: C=CCCCCC1CC(=O)N1Cc1cn(-c2cccc(Cl)c2)nn1 (stereo unspecified)

MIC (Staphylococcus aureus [13]): 6.5 µg/mL (≈ 16.9 µM)
MIC (Escherichia coli [14]): 6.5 µg/mL (≈ 16.9 µM)
SMILES: Cc1ccc2c(c1)C=C(c1nnn(Cc3cn(Cc4ccccc4)nn3)n1)CO2

MIC (Escherichia coli [17]): 1 µg/mL (≈ 2.5 µM)
MIC (Staphylococcus aureus [18]): 1 µg/mL (≈ 2.5 µM)
SMILES: Cn1c([N+](=O)[O-])cnc1COCc1cn(-c2ccnc3cc(Cl)ccc23)nn1

MIC (Staphylococcus aureus [13]): 6.5 µg/mL (≈ 13.7 µM)
MIC (Escherichia coli [14]): 6.5 µg/mL (≈ 13.7 µM)
SMILES: Clc1ccc(Cn2cc(Cn3nnc(C4=Cc5cc(Cl)ccc5OC4)n3)nn2)c(Cl)c1

More lines, now with the values behind:

SMILES: O=C(N/N=C/c1cn(-c2ccccc2)nc1-c1ccc([N+](=O)[O-])cc1)c1cccc(-n2cc(-c3ccccc3)nn2)c1
MIC (Staphylococcus aureus [1]): 4 µg/mL (≈ 7.21 µM)
MIC (Escherichia coli [2]): 4 µg/mL (≈ 7.21 µM)
MIC (Pseudomonas aeruginosa [3]): 4 µg/mL (≈ 7.21 µM)

SMILES: O=C(N/N=C/c1cn(-c2ccccc2)nc1-c1ccccc1)c1cccc(-n2cc(-c3ccccc3)nn2)c1
MIC (Staphylococcus aureus [1]): 4 µg/mL (≈ 7.85 µM)
MIC (Escherichia coli [2]): 4 µg/mL (≈ 7.85 µM)
MIC (Pseudomonas aeruginosa [3]): 4 µg/mL (≈ 7.85 µM)

SMILES: C=C[C@]1(C)C[C@@H](OC(=O)CN2CCN(C(=O)Cn3cc(CN4CCN(c5ccc(Cl)cc5)CC4)nn3)CC2)[C@@]2(C)[C@@H]3C(=O)CC[C@@]3(CC[C@@H]2C)[C@@H](C)[C@@H]1O
MIC (Staphylococcus aureus [5]): 1 µg/mL (≈ 1.31 µM)
MIC (Staphylococcus aureus [6]): 1 µg/mL (≈ 1.31 µM)
MIC (Staphylococcus aureus [7]): 1 µg/mL (≈ 1.31 µM)
MIC (Staphylococcus aureus [8]): 1 µg/mL (≈ 1.31 µM)

SMILES: CCCCCc1ccc(-c2cn(CCCN3CCOC(=O)[C@H](C)[C@@H](O[C@H]4C[C@@](C)(OC)[C@@H](O)[C@H](C)O4)[C@H](C)[C@@H](O[C@H]4O[C@@H](C)C[C@@H](N(C)C)[C@@H]4O)[C@](C)(OC)C[C@@H](C)[C@H](O)[C@H](C)C3)nn2)cc1
MIC (Streptococcus pyogenes): 4 µg/mL (≈ 4.23 µM)
MIC (Streptococcus pneumoniae [9]): 4 µg/mL (≈ 4.23 µM)
MIC (Streptococcus pneumoniae [10]): 4 µg/mL (≈ 4.23 µM)
MIC (Staphylococcus aureus [11]): 4 µg/mL (≈ 4.23 µM)
MIC (Staphylococcus aureus [12]): 4 µg/mL (≈ 4.23 µM)

SMILES: CC(=O)Nc1ccc(S(=O)(=O)n2cc(CN3CCS(=O)(=O)CC3)nn2)cc1
MIC (Staphylococcus aureus [15]): 1.56 µg/mL (≈ 3.77 µM)
MIC (Bacillus subtilis): 1.56 µg/mL (≈ 3.77 µM)
MIC (Escherichia coli [16]): 1.56 µg/mL (≈ 3.77 µM)
MIC (Pseudomonas aeruginosa [4]): 1.56 µg/mL (≈ 3.77 µM)

SMILES: COC(=O)c1cc2ccc(=O)oc2cc1-c1cn(-c2ccc(C(=O)O)cc2)nn1
MIC (Staphylococcus aureus [19]): 0.31 µg/mL (≈ 0.792 µM)

SMILES: CCCCCc1ccc(-c2cn(CC(=O)NNC(=O)O[C@H]3[C@H](C)[C@@H](O[C@H]4O[C@@H](C)C[C@@H](N(C)C)[C@@H]4O)[C@](C)(O)C[C@@H](C)CN(C)[C@H](C)C4OC(=O)O[C@@]4(C)[C@@H](CC)OC(=O)[C@@H]3C)nn2)cc1 (stereo partly specified)
MIC (Streptococcus pyogenes): 4 µg/mL (≈ 4.3 µM)
MIC (Streptococcus pneumoniae [9]): 4 µg/mL (≈ 4.3 µM)
MIC (Streptococcus pneumoniae [10]): 4 µg/mL (≈ 4.3 µM)
MIC (Staphylococcus aureus [11]): 4 µg/mL (≈ 4.3 µM)
MIC (Staphylococcus aureus [12]): 4 µg/mL (≈ 4.3 µM)

SMILES: C=C[C@]1(C)C[C@@H](OC(=O)CO)C2(C)[C@H](C)CCC3(CCC(=O)[C@H]32)[C@@H](C)[C@@H]1O (stereo partly specified)
MIC (Staphylococcus aureus [20]): 2 µg/mL (≈ 5.28 µM)
MIC (Staphylococcus aureus [21]): 2 µg/mL (≈ 5.28 µM)
MIC (Staphylococcus aureus [22]): 2 µg/mL (≈ 5.28 µM)
MIC (Staphylococcus aureus [23]): 2 µg/mL (≈ 5.28 µM)
MIC (Staphylococcus aureus [5]): 2 µg/mL (≈ 5.28 µM)
MIC (Staphylococcus aureus [6]): 2 µg/mL (≈ 5.28 µM)
MIC (Staphylococcus aureus [7]): 2 µg/mL (≈ 5.28 µM)
MIC (Staphylococcus aureus [8]): 2 µg/mL (≈ 5.28 µM)

SMILES: CCCCc1ccc(-c2cn(CC(=O)NNC(=O)O[C@H]3C[C@H](C)[C@@H](O[C@@H]4[C@H](C)[C@@H](O[C@H]5O[C@@H](C)C[C@@H](N(C)C)[C@@H]5O)[C@@](C)(O)C[C@@H](C)CN(C)[C@H](C)[C@H]5OC(=O)O[C@]5(C)[C@H](CC)OC(=O)[C@@H]4C)C[C@@]3(C)OC)nn2)cc1
MIC (Staphylococcus aureus [24]): 2 µg/mL (≈ 1.87 µM)
MIC (Staphylococcus aureus [25]): 2 µg/mL (≈ 1.87 µM)
MIC (Staphylococcus aureus [26]): ≥ 128 µg/mL
MIC (Staphylococcus aureus [27]): 2 µg/mL (≈ 1.87 µM)
MIC (Klebsiella pneumoniae): ≥ 128 µg/mL
Ratio (Staphylococcus aureus [28]): >32
Ratio (Staphylococcus aureus [29]): >32
